Data reported in patent US9394284B2, “Compounds act at multiple prostaglandin receptors giving a general anti-inflammatory response” (Allergan, Inc., priority 2010, dated 2016).

Tests used:
Format in all cases: cell-based
[1] = biological target: T1, human prostanoid EP1 receptor (Homo sapiens, UniProt P34995); assay: FLIPR Ca2+ signaling antagonist assay, EP1 receptor stable cell line; conditions: HEK-293 EBNA stable cell line; standard agonist PGE2; NA = inactive (no antagonism or Kb 10,000 nM); PAg, Ag not defined
T1 construct: expressed in transfected cells
T1 sequence (P34995 1-402): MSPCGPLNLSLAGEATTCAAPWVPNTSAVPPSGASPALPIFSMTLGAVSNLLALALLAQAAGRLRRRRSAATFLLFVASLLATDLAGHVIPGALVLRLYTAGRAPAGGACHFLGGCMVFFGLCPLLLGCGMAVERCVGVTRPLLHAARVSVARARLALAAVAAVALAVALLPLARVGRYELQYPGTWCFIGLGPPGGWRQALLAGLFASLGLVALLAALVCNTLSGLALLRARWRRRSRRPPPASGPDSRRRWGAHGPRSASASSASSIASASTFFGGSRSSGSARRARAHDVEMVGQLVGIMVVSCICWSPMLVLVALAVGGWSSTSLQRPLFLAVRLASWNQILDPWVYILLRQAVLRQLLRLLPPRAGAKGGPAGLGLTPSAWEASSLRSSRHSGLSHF
In short: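 Functional antagonism measured by Ca2+ flux at 37 °C. Agonist ranges were 10^−11 to 10^−5 M, or 10^−12 to 10^−6 M for TP with U-46619; PGE2 for EP1/EP3, BW 245C for DP1. Compound spanned 0.1–30 μM except TP, 0.067–1 μM.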

[2] = biological target: T2, human prostanoid EP3 receptor (Homo sapiens, UniProt P43115); assay: FLIPR Ca2+ signaling antagonist assay, EP3 receptor stable cell line; conditions: HEK-293 EBNA stable cell line; standard agonist PGE2; NA = inactive (no antagonism or Kb 10,000 nM); PAg, Ag not defined
T2 construct: expressed in transfected cells
T2 sequence (P43115 1-390): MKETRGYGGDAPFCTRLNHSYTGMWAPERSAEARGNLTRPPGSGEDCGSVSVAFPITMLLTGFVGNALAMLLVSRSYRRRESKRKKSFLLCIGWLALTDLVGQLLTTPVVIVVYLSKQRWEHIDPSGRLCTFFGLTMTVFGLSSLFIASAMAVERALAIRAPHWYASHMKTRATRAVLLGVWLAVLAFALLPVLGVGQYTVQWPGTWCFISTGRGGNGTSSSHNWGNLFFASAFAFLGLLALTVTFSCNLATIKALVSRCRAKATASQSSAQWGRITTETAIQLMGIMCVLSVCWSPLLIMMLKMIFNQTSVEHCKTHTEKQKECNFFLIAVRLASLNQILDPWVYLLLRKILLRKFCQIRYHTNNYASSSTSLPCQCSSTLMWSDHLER
Description: The above compounds were tested for PG antagonist activity as follows using human recombinant prostanoid receptor (DP1, EP1-4, FP, IP and TP) stable cell lines:
In order to measure the response of Gs and Gi coupled prostanoid receptors as a Ca^2+ signal, chimeric G protein cDNAs were used. Stable cell lines over-expressing human prostanoid DP1, EP1-4, FP, IP, and TP receptors were established as follows:
Briefly, human prostanoid DP1, EP2, and EP4 receptor cDNAs were co-transfected with chimeric Gqs cDNA containing a haemagglutanin (HA) epitope; human prostanoid EP3 receptors were co-transfected with chimeric Gqi-HA; human EP1, FP, IP, and TP receptor cDNAs were expressed with no exogenous G-proteins. Gqs and Gqi chimeric cDNAs (Molecular Devices, Sunnyvale, Calif., U.S.A.), as well as cDNAs of prostanoid receptors, were cloned into a pCEP4 vector with a hygromycin B selection marker. Transfection into HEK-293 EBNA (Epstein-Barr virus nuclear antigen) cells was achieved by the FuGENE 6 transfection Reagent (Roche Applied Science, Indianapolis, Ind., USA). Stable transfectants were selected according to hygromycin resistance. Because Gqs and Gqi contained an HA epitope, G-protein expression was detected by Western blotting analysis using anti-mouse HA monoclonal antibody and horseradish peroxidase (HRP)-conjugated secondary antibody, while functional expression of prostanoid receptors was detected by FLIPR screening (Matias et al., 2004). These stable cell lines were validated using previously published antagonists at 10 μM against serial dilutions of standard agonists by FLIPR functional assays for Ca^2+ Signaling (as described below).
Ca^2+ signaling studies were performed using a FLIPR TETRA system (Molecular Devices, Sunnyvale, Calif., USA) in the 384-format. This is a high-throughput instrument for cell-based assays to monitor Ca^2+ signaling associated with GPCRs and ion channels. Cells were seeded at a density of 5×10^4 cells/well in BioCoat poly-D-lysine coated, black wall, clear bottom 384-well plates (BD Biosciences, Franklin lakes, NJ, USA) and allowed to attach overnight in an incubator at 37° C. The cells were then washed twice with HBSS-HEPES buffer (Hanks' balanced salt solution without bicarbonate and phenol red, 20 mM HEPES, pH 7.4) using an ELx405 Select CW Microplate Washer (BioTek, Winooski, Vt., USA). After 60 min of dye-loading in the dark using the Ca^2+-sensitive dye Fluo-4AM (Invitrogen, Carlsbad, Calif., USA), at a final concentration of 2×10^−6M, the plates were washed 4 times with HBSS-HEPES buffer to remove excess dye and leaving 50 μl of buffer in each well. The plates were then placed in the FLIPR TETRA instrument and allowed to equilibrate at 37° C. AGN-211377 was added in a 25 μl volume to each well to give final concentrations of 0.1 μM, 0.3 μM, 1 μM, 3 μM, 10 μM, and 30 μM; or 0.067 μM, 0.1 μM, 0.2 μM, 0.3 μM, 0.67 μM, and 1 μM for cells over-expressing TP receptors. After 4.5 minutes, a 7-point serial dilution of the standard agonist for the corresponding receptor, in a 25 μl volume was injected at the final concentrations from 10^−11M to 10^−5M in 10-fold serial dilution increments for cells expressing human recombinant DP1, EP1, EP2, EP3, EP4, FP, and IP receptors. The dose range for the standard agonist for human recombinant TP receptors was from 10^−12 M to 10^−6 M. HBSS-HEPES buffer was used as the negative control for the standard agonists. Cells were excited with LED (light emitting diode) excitation at 470-495 nm and emission was measured through an emission filter at 515-575 nm. Assay plates were read for 3.5 minutes using the FLIPR^TETRA. The peak increase in fluorescence intensity was recorded for each well. On each plate, negative controls, dose response of positive controls, and co-treatments of antagonist-agonist for each dose were in triplicates.
Standard agonists were as follows: DP=BW 245C, EP1-EP4=PGE2, FP=17-phenyl-PGF2α, IP=Cicaprost, and TP=U-46619. […]

[3] = biological target: T3, human prostanoid EP4 receptor (Homo sapiens, UniProt P35408); assay: FLIPR Ca2+ signaling antagonist assay, EP4 receptor stable cell line; conditions: HEK-293 EBNA stable cell line; standard agonist PGE2; NA = inactive (no antagonism or Kb 10,000 nM); PAg, Ag not defined
T3 construct: expressed in transfected cells
T3 sequence (P35408 whole entry): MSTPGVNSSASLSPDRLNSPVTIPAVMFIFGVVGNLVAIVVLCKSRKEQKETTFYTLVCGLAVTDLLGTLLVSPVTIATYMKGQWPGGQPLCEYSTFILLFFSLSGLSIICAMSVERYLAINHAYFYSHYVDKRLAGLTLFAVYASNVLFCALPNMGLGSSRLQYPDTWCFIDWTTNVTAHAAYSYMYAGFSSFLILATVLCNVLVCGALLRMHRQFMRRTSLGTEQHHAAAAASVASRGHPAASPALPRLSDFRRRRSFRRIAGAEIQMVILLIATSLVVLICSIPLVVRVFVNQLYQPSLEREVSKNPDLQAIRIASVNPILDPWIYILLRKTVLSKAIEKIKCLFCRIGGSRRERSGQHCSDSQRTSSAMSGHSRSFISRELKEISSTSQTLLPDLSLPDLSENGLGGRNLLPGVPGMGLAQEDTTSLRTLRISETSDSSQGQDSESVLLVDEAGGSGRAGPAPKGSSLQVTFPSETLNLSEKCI
In short: (§1)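 Peak Fluo-4 fluorescence (ex 470–495, em 515–575 nm) was read for 3.5 min on FLIPR after agonist injection and expressed relative to 10^−6 M standard agonist. Cells were HEK-293 EBNA transfectants. Test compound was added 4.5 min beforehand at 0.1–30 μM, or 0.067–1 μM for TP.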

[4] = biological target: T4, human prostanoid IP receptor (Homo sapiens, UniProt P43119); assay: FLIPR Ca2+ signaling antagonist assay, IP receptor stable cell line; conditions: HEK-293 EBNA stable cell line; standard agonist Cicaprost; NA = inactive (no antagonism or Kb 10,000 nM); PAg, Ag not defined
T4 construct: expressed in transfected cells
T4 sequence (P43119 whole entry): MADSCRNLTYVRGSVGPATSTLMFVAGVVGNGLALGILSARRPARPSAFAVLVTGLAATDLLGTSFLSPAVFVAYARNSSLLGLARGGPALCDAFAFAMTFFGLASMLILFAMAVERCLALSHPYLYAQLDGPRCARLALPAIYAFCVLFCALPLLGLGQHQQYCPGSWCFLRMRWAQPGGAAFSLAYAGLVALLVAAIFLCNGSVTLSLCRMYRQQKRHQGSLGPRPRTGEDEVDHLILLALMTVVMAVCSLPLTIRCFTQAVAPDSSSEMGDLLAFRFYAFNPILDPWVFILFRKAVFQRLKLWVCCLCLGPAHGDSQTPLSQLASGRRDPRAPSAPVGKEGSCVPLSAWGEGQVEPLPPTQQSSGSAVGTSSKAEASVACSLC
In short: as §1

Row | Kb [1] | Kb [2] | Kb [3] | Kb [4] | IP (FLIPR) Kb [4] | Structure (SMILES)
1 | 60 nM | 1600 nM | 1000 nM | 1900 nM | – | Cc1cc(CCC(=O)NS(=O)(=O)C(F)(F)F)nn1Cc1cc(Cl)ccc1CCC1CCCC1 [Example 75]
2 | 15 nM | 6600 nM | 7000 nM | – | PAg | Cc1cc(CCC(=O)O)nn1Cc1cc(OC(F)(F)F)ccc1OCc1ccc(Cl)cc1 [Example 51, 3-[1-[2-(4-Chloro-benzyloxy)-5-trifluoromethoxy-benzyl]-5-methyl-1H-pyrazol-3-yl]-propionic acid]
3 | 200 nM | 5700 nM | 1700 nM | 720 nM | – | Cc1cc(CCC(=O)O)nn1Cc1cc(Cl)ccc1OCCCC(C)C [Example 40, 3-[1-(5-Chloro-2-(4-methylpentyloxy)benzyl)-5-methyl-1H-pyrazol-3-yl]-propionic acid]
4 | 380 nM | 8800 nM | 1100 nM | 1800 nM | – | CCCCC(CC)COc1ccc(Br)cc1Cn1nc(CCC(=O)O)cc1C (centres unmarked) [Example 6, 3-[1-(5-Bromo-2-(2-ethyl-hexyloxy)-benzyl)-5-methyl-1H-pyrazol-3-yl]-propionic acid]
5 | 3 nM | 7100 nM | 8400 nM | 1000 nM | – | Cc1cc(CCC(=O)O)nn1Cc1cc(Cl)ccc1OCc1ccc(Cl)cc1Cl [Example 26, 3-[1-(5-Chloro-2-(2,4-dichlorobenzyloxy)benzyl)-5-methyl-1H-pyrazol-3-yl]-propionic acid]

Row | Structure (SMILES) | Kb [1] | Kb [2] | Kb [3] | Kb [4] | IP (FLIPR) Kb [4]
6 | CCC(CC)COc1ccc(Cl)cc1Cn1nc(CC(C)C(=O)O)cc1C (racemic) [Example 68, 3-{1-[5-Chloro-2-(2-ethyl-butoxy)-benzyl]-5-methyl-1H-pyrazol-3-yl}-2-methyl-propionic acid] | 70 nM | 5200 nM | 130 nM | 5700 nM | –
7 | Cc1cc(CCC(=O)NS(=O)(=O)C(F)(F)F)nn1Cc1cc(Br)ccc1OCC(C)C [Example 19, N-(3-{1-[5-Bromo-2-isobutoxybenzyl]-5-methyl-1H-pyrazol-3-yl}-propionyl)-C,C,C-trifluoro-methanesulfonamide] | 14 nM | 700 nM | 30 nM | 1400 nM | –
8 | CCCc1cc(CCC(=O)O)nn1Cc1cc(Br)ccc1OCC(CC)CC [Example 56, 3-{1-[5-Bromo-2-(2-ethyl-butoxy)-benzyl]-5-propyl-1H-pyrazol-3-yl}-propionic acid] | 60 nM | 2700 nM | 3 nM | 1300 nM | –
